One data set concerns Survivin mRNA. Briefly: Tumour analysis: Survivin mRNA after intratumoural injection. The class given is in vivo, Balb/cA-nu mice. The conditions noted are these: 25 mg/kg intratumoral, 6 times over 2 weeks, sampling 24 hours after last dose, versus saline. The method, then: (§1) Model: PC-3 human prostate cancer cells (ECACC) are mixed with Matrigel and injected s.c. into both flanks of female Balb/cA-nu mice on Day 0.
(§2) Administration: Oligonucleotides i.p. (see FIG. 8) or intratumoural (see FIG. 9), Taxol i.v., all according to schedule
Total RNA isolation: Approximately 20 mg tumour tissue was homogenized in 400 μl RTL buffer (Qiagen) supplemented with 1% mercaptoethanol. Total RNA was isolated using RNeasy mini kit (Qiagen) according to the manufacture's instructions.
cDNA synthesis: First strand synthesis was performed using OmniScript Reverse Transcriptase kit according to the manufacturer's instructions (Qiagen). […] Protein levels were analysed on individual tumours by western blotting (see FIG. 9). Real time PCR analysis: To determine the relative Survivin mRNA level treated and untreated tumours, the generated cDNA was used in quantitative PCR analysis using an iCycler from BioRad. The cDNA was diluted 5-fold and 8 μl was mixed with 52 μl Taqman probe master mix containing 30 μl Platinum Quantitative PCR SuperMix UDG 2×PCR master mix (Invitrogen), 3 μl 20× Taqman probe and primer mix (forward primer: 5′-[…]-3′ (SEQ ID NO. 29), final 0.9 μM. Reverse primer: 5′-[…]-3′ (SEQ ID NO. 30), final 0.6 μM and taqman probe: FAM-5′-[…]-TAMRA-3′ (SEQ ID NO. 31), final 0.1 μM) and 19 μl H2O. […]

For data set [1], the system named is PC-3 human prostate cancer cells. Briefly: PC3 xenograft tumour growth inhibition in nude mice. Format: in vivo, Balb/cA-nu mice. The conditions noted are these: combined with Taxol, dose schedules A and B, after 27 days, versus single agent treatment or saline. The method, then:
as §1
Dosing: Saline solution of SEQ ID NO. 2 according to schedule, 2 mg/ml working solution, dosing volume 10 ml/kg; Taxol was used in the clinical formulation. The animals were dosed according to the average group weight on Day 0.
as §2
Observations: Mortality (daily), body weight (twice per week),
Tumour volume: During the experiment, tumour volume is measured twice per week and calculated according to the formula (L×D^2×0.5), where L represents the largest diameter and D the tumour diameter perpendicular to L (mm).
Antitumour activity: Mean tumour weight of treated tumours will be compared with control group.
End of study: The animals will be sacrificed by cervical dislocation. Tumours, livers and spleens will be weighed.

Another data set deals with HeLa cells. Briefly: Annexin V-FITC/PI flow cytometry analysis. Format: cell-based, human. To be noted: 5 nM or 25 nM. The method, then: Culturing of cells: 15PC3 was cultured in DMEM (Sigma) containing 10% fetal bovine serum, Glutamax I and gentamicin at 37° C., 95% humidity and 5% CO2. The cervical carcinoma cell line HeLa were cultured in MEM (Sigma) containing 10% fetal bovine serum, Glutamax I and gentamicin at 37° C., 95% humidity and 5% CO2. When reaching 60-70% confluency, the cells were transfected using Lipofectamine 2000 (5 μg/ml).
0.4×10^6 HeLa cells were seeded in T25 flasks one day prior to transfection. On the day of transfection, the cells were washed once in 37° C. OptiMEM followed by addition of 2.8 ml OptiMEM containing 5 μg/ml Lipofectamine-2000 (In vitrogen). Cells were incubated for 7 min before adding 700 μl oligonucleotides diluted in OptiMEM to a final concentration of 5 nM or 25 nM, Mock transfected cells served as control. After 4 hours of treatment cells were washed in OptiMEM and 3 ml culture medium was added. Following oligonucleotide treatment cells were allowed to recover for 48 hours before they were harvested by scraping and washed twice in PBS. 0.2×10^6 cells were incubated with 5 μl Annexin V-FITC and 10 μl propidium iodide (PI-10 mg/ml) and incubated for 15 min at room temperature in the dark. […] Moreover, TRAIL (Apo2L) induced HeLA cells (0.5 μg/ml) were used as positive control. (See FIG. 4)
Background: A flow cytometer gives signals particle by particle.

Oligonucleotides are written 5' to 3', each unit as a sugar letter and its base; * is a phosphorothioate linkage, no mark a phosphodiester; rarer units and linkages stand in square brackets, end groups in braces. Plain capitals give the bases only. l = locked nucleic acid (LNA); [5mC] = 5-methylcytosine; d = 2'-deoxy (DNA)

Regarding “5′-^MeCsTs^MeCsAsastscscsastsgsgs^MeCsAsGsc-3′ (l[5mC]*lT*l[5mC]*lA*dA*dT*dC*dC*dA*dT*dG*dG*l[5mC]*lA*lG*dC) [SEQ ID NO. 2]”, in the data set on Survivin mRNA, the “Survivin mRNA level in tumours” value was “reduced levels of both mRNA and Survivin protein”. For the same substance, the Tumour weight result in data set [1] is “Tumour weight reduction”. Moreover, the “Induction of early and late apoptosis (Annexin V-FITC/PI staining)” value with HeLa cells is “dose dependent induction of early and late apoptosis”.

The values are drawn from patent publication US8173428B2, “LNA oligonucleotides and the treatment of cancer” (Santaris Pharma A/S, priority 2004, dated 2012).
